Measurements as given in US20100099561A1, “HETEROBICYCLIC ALKYLTHIO-BRIDGED ISOXAZOLINES” (E.I. DU PONT DE NEMOURS AND COMPANY, priority 2008, published 2010).

Columns and labels:
Assay type in all cases: in vivo
[1] = system: barnyardgrass (Echinochloa crus-galli); assay: Test A preemergence, barnyardgrass; conditions: 0 to 100 scale (0 no effect, 100 complete control)
How it was run: (§1)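 Seeds sown in loam soil–sand blend; test chemicals in non-phytotoxic solvent mixture with surfactant applied preemergence as directed soil spray, or postemergence to plants 2–10 cm tall at one- to two-leaf stage. Greenhouse, ~10 days; visual injury rated against untreated controls, 0 (no effect) to 100 (complete control).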

[2] = system: barnyardgrass (Echinochloa crus-galli); assay: Test A postemergence, barnyardgrass; conditions: 0 to 100 scale (0 no effect, 100 complete control)
How it was run: as §1

[3] = system: morningglory (Ipomoea spp.); assay: Test A postemergence, morningglory; conditions: 0 to 100 scale (0 no effect, 100 complete control)
How it was run: as §1

corn (Zea mays) = assay: Test A postemergence, corn; conditions: 0 to 100 scale (0 no effect, 100 complete control)
How it was run: as §1

[4] = system: downy bromegrass (Bromus tectorum); assay: Test B preemergence, downy bromegrass; conditions: scale 0 to 100
Description: (§2) Seeds of plant species selected from blackgrass (Alopecurus myosuroides), downy bromegrass (Bromus tectorum), green foxtail (Setaria viridis), Italian ryegrass (Lolium multiflorum), wheat (Triticum aestivum), wild oat (Avena fatua), catchweed bedstraw (Galium aparine), bermudagrass (Cynodon dactylon), Surinam grass (Brachiaria decumbens), cocklebur (Xanthium strumarium), corn (Zea mays), large crabgrass (Digitaria sanguinalis), woolly cupgrass (Eriochloa villosa), giant foxtail (Setaria faberii), goosegrass (Eleusine indica), johnsongrass (Sorghum halepense), kochia (Kochia scoparia), lambsquarters (Chenopodium album), morningglory (Ipomoea coccinea), nightshade (eastern black nightshade, Solanum ptycanthum), yellow nutsedge (Cyperus esculentus), pigweed (Amaranthus retroflexus), ragweed (common ragweed, Ambrosia elatior), soybean (Glycine max), sunflower (common oilseed sunflower, Helianthus annuus), Russian thistle (Salsola kali), and velvetleaf (Abutilon theophrasti) were planted into a blend of loam soil and sand and treated preemergence with test compounds formulated in a non-phytotoxic solvent mixture which included a surfactant. Treated plants and controls were maintained in a greenhouse for 13 to 15 days, after which time all species were compared to controls and visually evaluated. Plant response ratings, summarized in Table B, are based on a scale of 0 to 100 where 0 is no effect and 100 is complete control. A dash (-) response means no test result.

[5] = system: Italian ryegrass (Lolium multiflorum); assay: Test B preemergence, Italian ryegrass; conditions: Preemergence, scale 0 to 100
Description: as §2

[6] = system: Surinam grass (Brachiaria decumbens); assay: Test B preemergence, Surinam grass; conditions: Preemergence, scale 0 to 100
Description: as §2

[7] = system: cocklebur (Xanthium strumarium); assay: Test B preemergence, cocklebur; conditions: scale 0 to 100
Description: as §2

[8] = system: large crabgrass (Digitaria sanguinalis); assay: Test B preemergence, large crabgrass; conditions: scale 0 to 100
Description: as §2

[9] = system: woolly cupgrass (Eriochloa villosa); assay: Test B preemergence, woolly cupgrass; conditions: scale 0 to 100
Description: as §2

[10] = system: goosegrass (Eleusine indica); assay: Test B preemergence, goosegrass; conditions: scale 0 to 100
Description: as §2

[11] = system: lambsquarters (Chenopodium album); assay: Test B preemergence, lambsquarters; conditions: scale 0 to 100
Description: as §2

[12] = system: pigweed (Amaranthus retroflexus); assay: Test B preemergence, pigweed; conditions: scale 0 to 100
Description: as §2

[13] = system: ragweed (common ragweed, Ambrosia elatior); assay: Test B preemergence, ragweed; conditions: scale 0 to 100
Description: as §2

soybean (Glycine max) = assay: Test B preemergence, soybean; conditions: Preemergence, scale 0 to 100
Description: as §2

[14] = system: sunflower (common oilseed sunflower, Helianthus annuus); assay: Test B preemergence, sunflower; conditions: Preemergence, scale 0 to 100
Description: as §2

[15] = system: umbrella sedge (Cyperus difformis); assay: Test B flooded paddy test, umbrella sedge; conditions: Flood, scale 0 to 100
How it was run: (§3)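 Compounds were added directly to paddy water over 2-leaf-stage plants in pots flooded 3 cm above soil, water depth maintained. Visual injury scored against controls after 13 to 15 days in greenhouse, 0 (none) to 100 (complete control); dash indicates no result.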

[16] = system: barnyardgrass (Echinochloa crus-galli); assay: Test B flooded paddy test, barnyardgrass; conditions: Flood
How it was run: as §3

CC1(C)CC(S(=O)(=O)Cc2c(C(F)(F)F)nc3n(c2=O)CCO3)=NO1 [Compound 2, 6-[[(4,5-dihydro-5,5-dimethyl-3-isoxazolyl)sulfonyl]methyl]-2,3-dihydro-7-(trifluoromethyl)-5H-oxazolo[3,2-α]pyrimidin-5-one]
Plant response rating, Barnyardgrass ([1]; 125 g ai/ha): 80
Plant response rating, Barnyardgrass ([1]; 500 g ai/ha): 90
Plant response rating, Barnyardgrass ([2]; 125 g ai/ha): 70
Plant response rating, Barnyardgrass ([2]; 500 g ai/ha): 80
Plant response rating, Morningglory ([3]; 125 g ai/ha): 30
Plant response rating, Morningglory ([3]; 500 g ai/ha): 70
Plant response rating, Corn (corn (Zea mays); 125 g ai/ha): 0
Plant response rating, Corn (corn (Zea mays); 500 g ai/ha): 50
Plant response rating, Bromegrass, Downy ([4]; 8 g ai/ha): 0
Plant response rating, Bromegrass, Downy ([4]; 16 g ai/ha): 0
Plant response rating, Bromegrass, Downy ([4]; 31 g ai/ha): 0
Plant response rating, Bromegrass, Downy ([4]; 62 g ai/ha): 0
Plant response rating, Ryegrass, Italian ([5]; 16 g ai/ha): 0
Plant response rating, Ryegrass, Italian ([5]; 31 g ai/ha): 0
Plant response rating, Ryegrass, Italian ([5]; 62 g ai/ha): 0
Plant response rating, Surinam Grass ([6]; 16 g ai/ha): 0
Plant response rating, Surinam Grass ([6]; 31 g ai/ha): 80
Plant response rating, Surinam Grass ([6]; 62 g ai/ha): 80
Plant response rating, Cocklebur ([7]; 8 g ai/ha): 0
Plant response rating, Cocklebur ([7]; 16 g ai/ha): 0
Plant response rating, Cocklebur ([7]; 31 g ai/ha): 0
Plant response rating, Cocklebur ([7]; 62 g ai/ha): 0
Plant response rating, Crabgrass, Large ([8]; 8 g ai/ha): 0
Plant response rating, Crabgrass, Large ([8]; 16 g ai/ha): 65
Plant response rating, Crabgrass, Large ([8]; 31 g ai/ha): 80
Plant response rating, Crabgrass, Large ([8]; 62 g ai/ha): 90
Plant response rating, Cupgrass, Woolly ([9]; 8 g ai/ha): 0
Plant response rating, Cupgrass, Woolly ([9]; 16 g ai/ha): 75
Plant response rating, Cupgrass, Woolly ([9]; 31 g ai/ha): 75
Plant response rating, Cupgrass, Woolly ([9]; 62 g ai/ha): 95
Plant response rating, Goosegrass ([10]; 8 g ai/ha): 0
Plant response rating, Goosegrass ([10]; 16 g ai/ha): 65
Plant response rating, Goosegrass ([10]; 31 g ai/ha): 75
Plant response rating, Goosegrass ([10]; 62 g ai/ha): 80
Plant response rating, Lambsquarters ([11]; 8 g ai/ha): 0
Plant response rating, Lambsquarters ([11]; 31 g ai/ha): 0
Plant response rating, Lambsquarters ([11]; 62 g ai/ha): 0
Plant response rating, Pigweed ([12]; 8 g ai/ha): 0
Plant response rating, Pigweed ([12]; 16 g ai/ha): 0
Plant response rating, Pigweed ([12]; 31 g ai/ha): 0
Plant response rating, Pigweed ([12]; 62 g ai/ha): 0
Plant response rating, Ragweed ([13]; 31 g ai/ha): 0
Plant response rating, Ragweed ([13]; 62 g ai/ha): 20
Plant response rating, Soybean (soybean (Glycine max); 31 g ai/ha): 0
Plant response rating, Soybean (soybean (Glycine max); 62 g ai/ha): 0
Plant response rating, Sunflower ([14]; 16 g ai/ha): 0
Plant response rating, Sunflower ([14]; 31 g ai/ha): 0
Plant response rating, Sunflower ([14]; 62 g ai/ha): 0
Plant response rating, Sedge, Umbrella ([15]; 62 g ai/ha): 0
Plant response rating, Sedge, Umbrella ([15]; 250 g ai/ha): 0
Plant response rating, Barnyardgrass ([16]; 62 g ai/ha, scale 0 to 100): 0
Plant response rating, Barnyardgrass ([16]; 250 g ai/ha, scale 0 to 100 (0 no effect, 100 complete control)): 0
